Experiments:
Format in all cases: cell-based
[1] = biological target: T1, Substance-P receptor (Homo sapiens, UniProt P25103); test: (§1) Inhibition of cloned human NK1 (Neurokinin 1) receptor, stably expressed in chinese hamster ovary (CHO) cells was determined
[2] = biological target: T2, Substance-K receptor (Homo sapiens, UniProt P21452); test: Inhibition of cloned human NK2 (Neurokinin 2) receptor, stably expressed in chinese hamster ovary (CHO) cells was determined
T2 sequence (P21452 whole entry): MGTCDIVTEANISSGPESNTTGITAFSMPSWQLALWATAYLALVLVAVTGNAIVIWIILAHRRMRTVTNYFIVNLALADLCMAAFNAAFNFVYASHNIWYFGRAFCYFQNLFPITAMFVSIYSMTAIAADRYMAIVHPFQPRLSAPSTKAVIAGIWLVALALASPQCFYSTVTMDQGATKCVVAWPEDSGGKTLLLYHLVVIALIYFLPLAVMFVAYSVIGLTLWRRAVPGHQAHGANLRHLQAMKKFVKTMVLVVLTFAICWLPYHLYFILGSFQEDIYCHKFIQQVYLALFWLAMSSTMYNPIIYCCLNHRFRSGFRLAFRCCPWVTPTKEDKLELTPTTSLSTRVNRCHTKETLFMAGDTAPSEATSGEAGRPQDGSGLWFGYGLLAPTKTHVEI

[3] = biological target: T1, Substance-P receptor; test: as §1; conditions: concentration not given here

T1 sequence (P25103 whole entry): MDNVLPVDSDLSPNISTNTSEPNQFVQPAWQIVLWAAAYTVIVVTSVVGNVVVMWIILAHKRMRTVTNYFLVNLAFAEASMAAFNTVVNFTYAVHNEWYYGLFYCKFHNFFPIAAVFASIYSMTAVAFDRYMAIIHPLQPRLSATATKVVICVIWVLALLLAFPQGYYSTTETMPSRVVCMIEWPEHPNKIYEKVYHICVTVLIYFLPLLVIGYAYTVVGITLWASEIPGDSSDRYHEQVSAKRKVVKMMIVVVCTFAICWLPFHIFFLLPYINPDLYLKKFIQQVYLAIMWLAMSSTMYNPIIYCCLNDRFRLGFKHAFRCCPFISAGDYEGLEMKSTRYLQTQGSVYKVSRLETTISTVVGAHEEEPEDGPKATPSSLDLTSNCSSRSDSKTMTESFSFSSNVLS

IC50 [1] | IC50 [2] | inhibition [3] | SMILES
77 nM | 928 nM |  | CC(=O)NC1(c2ccccc2)CCN(C(=O)N[C@@H](Cc2c[nH]c3ccccc23)C(=O)N(C)Cc2ccccc2)CC1
332 nM | 211 nM |  | O=C(NCCc1ccccc1)[C@H](Cc1c[nH]c2ccccc12)NC(=O)N1CCC2(CCc3ccccc32)CC1
1100 nM | 166 nM |  | CSN1CC2(CCN(C(=O)N[C@@H](CCc3ccccc3)C(=O)N(C)Cc3ccccc3)CC2)c2ccccc21
 | > 5000 nM |  | CNC(=O)N[C@@H](Cc1c[nH]c2ccccc12)C(=O)OCc1cc(C)cc(C)c1
480 nM | 258 nM |  | CSN1CC2(CCN(C(=O)N[C@@H](COCc3ccccc3)C(=O)N(C)Cc3ccccc3)CC2)c2ccccc21
10 nM | 1400 nM |  | CSN1CC2(CCN(C(=O)N[C@@H](Cc3c[nH]c4ccccc34)C(=O)N(C)Cc3cc(C)cc(C)c3)CC2)c2ccccc21
 | > 5000 nM |  | CC(=O)N[C@@H](Cc1c[nH]c2ccccc12)C(=O)OCc1cc(C(F)(F)F)cc(C(F)(F)F)c1 [L-732138]
242 nM | 139 nM |  | CCN(Cc1ccccc1)C(=O)[C@H](Cc1c[nH]c2ccccc12)NC(=O)N1CCC2(CCc3ccccc32)CC1
56 nM | 27 nM |  | CN(Cc1ccccc1)C(=O)[C@H](Cc1c[nH]c2ccccc12)NC(=O)N1CCC2(CCc3ccccc32)CC1
14 nM | 24 nM |  | CSN1CC2(CCN(C(=O)N[C@@H](Cc3c[nH]c4ccccc34)C(=O)N(C)Cc3ccccc3)CC2)c2ccccc21
> 1100 nM | > 5000 nM |  | Cc1cc(C)cc(CN(C)C(=O)[C@H](Cc2c[nH]c3ccccc23)NC(=O)c2ccccc2)c1
0.58 nM | > 1000 nM |  | CSN1CC2(CCN(C(=O)N[C@@H](Cc3c[nH]c4ccccc34)C(=O)OCc3cc(C(F)(F)F)cc(C(F)(F)F)c3)CC2)c2ccccc21
164 nM | 577 nM |  | CSN1CC2(CCN(C(=O)N[C@H](Cc3c[nH]c4ccccc34)C(=O)N(C)Cc3ccccc3)CC2)c2ccccc21
227 nM | 14 nM |  | O=C(NCc1ccccc1)[C@H](Cc1c[nH]c2ccccc12)NC(=O)N1CCC2(CCc3ccccc32)CC1
800 nM | 0.13 nM |  | CC(=O)NC1(c2ccccc2)CCN(CC[C@H](CN(C)C(=O)c2ccccc2)c2ccc(Cl)c(Cl)c2)CC1 [SAREDUTANT]
 | 2100 nM | 39% | O=C(Nc1ccccc1)[C@H](Cc1c[nH]c2ccccc12)NC(=O)N1CCC2(CCc3ccccc32)CC1
23 nM | 4500 nM |  | CSN1CC2(CCN(C(=O)N[C@@H](Cc3c[nH]c4ccccc34)C(=O)OCc3ccccc3)CC2)c2ccccc21
68 nM | 18 nM |  | CN(Cc1ccccc1)C(=O)[C@H](Cc1c[nH]c2ccccc12)NC(=O)N1CCC2(C=Cc3ccccc32)CC1
1 nM | 4200 nM |  | CSN1CC2(CCN(C(=O)N[C@@H](Cc3c[nH]c4ccccc34)C(=O)N(C)Cc3cc(C(F)(F)F)cc(C(F)(F)F)c3)CC2)c2ccccc21

Reference: ChEMBL document CHEMBL1130938, “L-tryptophan urea amides as NK1/NK2 dual antagonists” (Bioorg Med Chem Lett, 1998)
